Results as given in the Kinase Knowledgebase extract (Sharma et al. 2016).

Biological target: EGFR (UniProt P00533)
Sequence (P00533 whole entry, looked up): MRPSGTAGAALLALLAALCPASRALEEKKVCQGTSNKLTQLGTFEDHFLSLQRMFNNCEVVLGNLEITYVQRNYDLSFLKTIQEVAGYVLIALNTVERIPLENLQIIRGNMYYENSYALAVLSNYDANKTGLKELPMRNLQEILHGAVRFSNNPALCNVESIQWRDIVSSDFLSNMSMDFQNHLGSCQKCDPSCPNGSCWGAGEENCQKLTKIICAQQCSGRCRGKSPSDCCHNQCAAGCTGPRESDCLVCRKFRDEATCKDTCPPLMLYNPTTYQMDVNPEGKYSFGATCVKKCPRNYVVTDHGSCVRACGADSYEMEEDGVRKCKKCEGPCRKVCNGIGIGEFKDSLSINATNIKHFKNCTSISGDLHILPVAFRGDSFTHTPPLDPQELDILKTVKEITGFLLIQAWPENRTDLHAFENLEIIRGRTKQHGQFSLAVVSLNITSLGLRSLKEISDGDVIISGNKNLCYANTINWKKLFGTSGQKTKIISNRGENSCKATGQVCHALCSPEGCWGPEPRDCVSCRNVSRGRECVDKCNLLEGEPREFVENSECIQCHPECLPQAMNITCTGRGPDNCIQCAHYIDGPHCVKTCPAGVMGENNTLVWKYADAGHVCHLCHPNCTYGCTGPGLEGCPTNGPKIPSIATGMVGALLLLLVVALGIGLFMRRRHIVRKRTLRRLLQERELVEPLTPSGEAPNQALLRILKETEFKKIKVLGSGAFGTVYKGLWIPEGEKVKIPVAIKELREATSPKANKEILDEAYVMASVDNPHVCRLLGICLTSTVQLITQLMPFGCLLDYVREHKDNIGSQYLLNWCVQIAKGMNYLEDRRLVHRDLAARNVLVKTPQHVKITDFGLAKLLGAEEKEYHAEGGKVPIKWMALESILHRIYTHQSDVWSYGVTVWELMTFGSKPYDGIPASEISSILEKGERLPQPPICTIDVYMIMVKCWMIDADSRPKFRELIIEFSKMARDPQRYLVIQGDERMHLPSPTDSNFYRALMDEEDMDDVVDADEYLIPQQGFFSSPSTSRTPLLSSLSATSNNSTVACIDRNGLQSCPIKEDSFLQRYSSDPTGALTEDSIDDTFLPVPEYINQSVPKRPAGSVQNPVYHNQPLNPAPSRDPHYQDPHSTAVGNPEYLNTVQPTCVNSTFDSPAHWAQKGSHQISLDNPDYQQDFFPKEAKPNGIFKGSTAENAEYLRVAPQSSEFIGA

Structure (SMILES)	IC50 [nM]
COCCN1CCC(Nc2ccc3c(c2)/C(=C(\c2cccc(Cl)c2)c2nc4ccccc4[nH]2)C(=O)N3)CC1	500 to 5000
CCN1CCC(Nc2ccc3c(c2)/C(=C(\c2ccc(C(F)(F)F)c(F)c2)c2nc(C)c[nH]2)C(=O)N3)CC1	< 50
O=C1Nc2ccc(NC3CCN(CCN4CCCC4)CC3)cc2/C1=C(\c1cccc(F)c1)c1ncc[nH]1	> 5000
CCN1CCCC(Nc2ccc3c(c2)/C(=C(\c2ccccc2)c2nc4cc(OC)ccc4[nH]2)C(=O)N3)C1 (configuration not stated)	500 to 5000
COCCN1CCC(Nc2ccc3c(c2)/C(=C(\c2ccc(C)cc2)c2ncc[nH]2)C(=O)N3)CC1	50 to 500
COCCN1CCC(Nc2ccc3c(c2)/C(=C(\c2ccc(C(F)(F)F)cc2)c2ncc[nH]2)C(=O)N3)CC1	> 5000
CCN1CCC(Nc2ccc3c(c2)/C(=C(\c2ccc(F)cc2)c2ncc[nH]2)C(=O)N3)CC1	500 to 5000
CCN1CCC(Nc2ccc3c(c2)/C(=C(\c2cccc(Cl)c2)c2nc4ccccc4[nH]2)C(=O)N3)CC1	50 to 500
CCN1CCC(Nc2ccc3c(c2)/C(=C(\c2ccc(OC)cc2)c2nc4cc(OC)ccc4[nH]2)C(=O)N3)CC1	500 to 5000
COCCN1CCC(Nc2ccc3c(c2)/C(=C(\c2ccc(OC)cc2)c2ncc[nH]2)C(=O)N3)CC1	> 5000
CCN1CCC(Nc2ccc3c(c2)/C(=C(\c2ccc(Cl)cc2)c2nc(C)c[nH]2)C(=O)N3)CC1	50 to 500
CCN1CCC(Nc2ccc3c(c2)/C(=C(\c2ccc(F)c(F)c2)c2ncc[nH]2)C(=O)N3)CC1	500 to 5000
CCN1CCC(N(C)c2ccc3c(c2)/C(=C(\c2cccc(Cl)c2)c2nc4ccccc4[nH]2)C(=O)N3)CC1	500 to 5000
O=C1Nc2ccc(NC3CCN(CCN4CCOCC4)CC3)cc2/C1=C(\c1cccc(F)c1)c1ncc[nH]1	> 5000
COCCN1CCC(Nc2ccc3c(c2)/C(=C(\c2ccc(Cl)cc2)c2ncc[nH]2)C(=O)N3)CC1	> 5000
CCN1CCC(Nc2ccc3c(c2)/C(=C(/c2nc(C)c[nH]2)c2cccc(F)c2F)C(=O)N3)CC1	50 to 500
CCN1CCC(Nc2ccc3c(c2)/C(=C(/c2nc(C)c[nH]2)c2cc(F)c(Cl)cc2Cl)C(=O)N3)CC1	50 to 500
CCN1CCC(Nc2ccc3c(c2)/C(=C(\c2ccc(N)cc2)c2nc4ccccc4[nH]2)C(=O)N3)CC1	50 to 500
CCN1CCC(Nc2ccc3c(c2)/C(=C(\c2cccc(C(=N)N)c2)c2nc4ccccc4[nH]2)C(=O)N3)CC1	500 to 5000
CCN1CCC(Nc2ccc3c(c2)/C(=C(\c2ccc(OC)cc2)c2ncc[nH]2)C(=O)N3)CC1	500 to 5000
CCN1CCC(Nc2ccc3c(c2)/C(=C(\c2ccc(C)c(F)c2)c2nc(C)c[nH]2)C(=O)N3)CC1	< 50

Structure (SMILES)	IC50 [nM]
CCN1CCC(Nc2ccc3c(c2)/C(=C(/c2ncc[nH]2)c2ccc(F)cc2F)C(=O)N3)CC1	50 to 500
CCN1CCC(Nc2ccc3c(c2)/C(=C(\c2ccc(F)c(Cl)c2)c2ncc[nH]2)C(=O)N3)CC1	500 to 5000
O=C1Nc2ccc(NC3CCNCC3)cc2/C1=C(\c1cccc(F)c1)c1ncc[nH]1	> 5000
CCN1CCC(Nc2ccc3c(c2)/C(=C(\c2cccc(F)c2)c2nc(-c4ccccc4)c[nH]2)C(=O)N3)CC1	50 to 500
CC1(C)CC(Nc2ccc3c(c2)/C(=C(\c2ccccc2)c2nc4ccccc4[nH]2)C(=O)N3)CC(C)(C)N1	500 to 5000
CCN1CCC(Nc2ccc3c(c2)/C(=C(\c2cc(F)cc(F)c2)c2ncc[nH]2)C(=O)N3)CC1	50 to 500
COCCN1CCC(Nc2ccc3c(c2)/C(=C(\c2cccc(F)c2)c2nc(-c4ccccc4)c[nH]2)C(=O)N3)CC1	50 to 500
CCCc1ccc(/C(=C2/C(=O)Nc3ccc(NC4CCN(CCOC)CC4)cc32)c2ncc[nH]2)cc1	50 to 500
COCCN1CCC(Nc2ccc3c(c2)/C(=C(\c2cc(F)cc(F)c2)c2nc(C)c[nH]2)C(=O)N3)CC1	50 to 500
COCCN1CCC(Oc2ccc3c(c2)/C(=C(\c2cccc(Cl)c2)c2nc4ccccc4[nH]2)C(=O)N3)CC1	50 to 500
CCN1CCC(Nc2ccc3c(c2)/C(=C(\c2cccc(Cl)c2)c2ncc[nH]2)C(=O)N3)CC1	50 to 500
COCCN1CCC(Nc2ccc3c(c2)/C(=C(\c2ccccc2)c2ncc[nH]2)C(=O)N3)CC1	> 5000
O=C1Nc2ccc(NC3CC4CCC(C3)N4)cc2/C1=C(\c1ccccc1)c1nc2ccccc2[nH]1 (configuration not stated)	500 to 5000
COCCN1CCC(Nc2ccc3c(c2)/C(=C(\c2ccc(F)c(F)c2)c2ncc[nH]2)C(=O)N3)CC1	> 5000
CCN1CCC(Nc2ccc3c(c2)/C(=C(/c2ncc[nH]2)c2ccccc2F)C(=O)N3)CC1	50 to 500
CCN1CCC(Nc2ccc3c(c2)/C(=C(\c2cccc(F)c2)c2ncn[nH]2)C(=O)N3)CC1	> 5000
CCN1CCC(Nc2ccc3c(c2)/C(=C(/c2nc(C)c[nH]2)c2ccc(Cl)cc2F)C(=O)N3)CC1	< 50
CCN1CCC(Nc2ccc3c(c2)/C(=C(\c2cccc(C#N)c2)c2nc4ccccc4[nH]2)C(=O)N3)CC1	500 to 5000
COc1ccc2[nH]c(/C(=C3\C(=O)Nc4ccc(NC5CC(C)(C)NC(C)(C)C5)cc43)c3ccccc3)nc2c1	500 to 5000
CCN1CCC(Nc2ccc3c(c2)/C(=C(\c2ccc(C)cc2)c2nc4cc(OC)ccc4[nH]2)C(=O)N3)CC1	500 to 5000
COCCN1CCC(Nc2ccc3c(c2)/C(=C(\c2cccc(Cl)c2)c2ncc[nH]2)C(=O)N3)CC1	500 to 5000

Structure (SMILES)	IC50 [nM]
CS(=O)(=O)N1CCC(Nc2ccc3c(c2)/C(=C(\c2cccc(F)c2)c2ncc[nH]2)C(=O)N3)CC1	> 5000
CCN1CCC(Nc2ccc3c(c2)/C(=C(\c2ccc(C(F)(F)F)cc2)c2nc(C)c[nH]2)C(=O)N3)CC1	50 to 500
COCCN1CCC(Nc2ccc3c(c2)/C(=C(\c2ccccc2)c2nc4cc(Cl)ccc4[nH]2)C(=O)N3)CC1	> 5000
CCN1CCC(Nc2ccc3c(c2)/C(=C(\c2ccc(F)cc2)c2nc(C)c[nH]2)C(=O)N3)CC1	50 to 500
CCN1CCC(Nc2ccc3c(c2)/C(=C(\c2cccc(C(F)(F)F)c2)c2ncc[nH]2)C(=O)N3)CC1	500 to 5000
COCCN1CCC(Nc2ccc3c(c2)/C(=C(\c2ccc(C)c(F)c2)c2nc(C)c[nH]2)C(=O)N3)CC1	< 50
CCN1CCC(Nc2ccc3c(c2)/C(=C(\c2ccc(C)cc2)c2ncc[nH]2)C(=O)N3)CC1	50 to 500
COc1ccc2[nH]c(/C(=C3\C(=O)Nc4ccc(NC5CCN(Cc6ccccc6)C5)cc43)c3ccccc3)nc2c1 (configuration not stated)	500 to 5000
CCN1CCC(Nc2ccc3c(c2)/C(=C(\c2ccc(C(F)(F)F)cc2)c2ncc[nH]2)C(=O)N3)CC1	500 to 5000
COCCN1CCC(Nc2ccc3c(c2)/C(=C(\c2cccc(F)c2)c2ncc[nH]2)C(=O)N3)CC1	50 to 500
COCCN1CCC(Nc2ccc3c(c2)/C(=C(\c2cccc(F)c2)c2ncn[nH]2)C(=O)N3)CC1	> 5000
CCN1CCC(Nc2ccc3c(c2)/C(=C(\c2ccc(Cl)cc2)c2nc4ccccc4[nH]2)C(=O)N3)CC1	50 to 500
CN(C)CCN1CCC(Nc2ccc3c(c2)/C(=C(\c2ccccc2)c2nc4ccccc4[nH]2)C(=O)N3)CC1	500 to 5000
O=C1Nc2ccc(NC3CCN(CCN4CCCCC4)CC3)cc2/C1=C(\c1cccc(F)c1)c1ncc[nH]1	> 5000
CCN1CCC(Nc2ccc3c(c2)/C(=C(/c2ncc[nH]2)c2ccc(C(F)(F)F)cc2F)C(=O)N3)CC1	50 to 500
COCCN1CCC(Nc2ccc3c(c2)/C(=C(\c2cc(F)cc(F)c2)c2ncc[nH]2)C(=O)N3)CC1	50 to 500
CCN1CCC(Oc2ccc3c(c2)/C(=C(\c2cccc(Cl)c2)c2ncc[nH]2)C(=O)N3)CC1	500 to 5000
CCN1CCC(Nc2ccc3c(c2)/C(=C(\c2ccc(C(F)(F)F)c(F)c2)c2ncc[nH]2)C(=O)N3)CC1	50 to 500
COCCN1CCC(Nc2ccc3c(c2)/C(=C(\c2ccc(F)c(Cl)c2)c2ncc[nH]2)C(=O)N3)CC1	> 5000
CCN1CCC(Nc2ccc3c(c2)/C(=C(\c2cc(F)cc(F)c2)c2nc4cc(F)ccc4[nH]2)C(=O)N3)CC1	50 to 500
COCCN1CCC(Nc2ccc3c(c2)/C(=C(\c2ccc(C)cc2)c2nc(C)c[nH]2)C(=O)N3)CC1	50 to 500

Structure (SMILES)	IC50 [nM]
COCCN1CCC(Nc2ccc3c(c2)/C(=C(\c2ccc(C)c(F)c2)c2ncc[nH]2)C(=O)N3)CC1	50 to 500
COCCN1CCC(Nc2ccc3c(c2)/C(=C(\c2cc(F)cc(F)c2)c2nc4ccccc4[nH]2)C(=O)N3)CC1	50 to 500
O=C1Nc2ccc(NC3CCNCC3)cc2/C1=C(\c1ccccc1)c1nc2ccccc2[nH]1	500 to 5000
CCN1CCC(Nc2ccc3c(c2)/C(=C(/c2ncc[nH]2)c2cc(F)c(Cl)cc2Cl)C(=O)N3)CC1	50 to 500
COCCN1CCC(Nc2ccc3c(c2)/C(=C(\c2ccc(C(F)(F)F)nc2)c2ncc[nH]2)C(=O)N3)CC1	> 5000
CCN1CCC(Nc2ccc3c(c2)/C(=C(/c2nc(C)c[nH]2)c2ccc(F)cc2F)C(=O)N3)CC1	50 to 500
CCN1CCC(Nc2ccc3c(c2)/C(=C(/c2nc(C)c[nH]2)c2ccc(C(F)(F)F)cc2F)C(=O)N3)CC1	50 to 500
CCN1CCC(Nc2ccc3c(c2)/C(=C(\c2ccc(F)c(Cl)c2)c2nc(C)c[nH]2)C(=O)N3)CC1	50 to 500
CCN1CCC(Nc2ccc3c(c2)/C(=C(/c2ncc[nH]2)c2cccc(F)c2F)C(=O)N3)CC1	50 to 500
CCN1CCC(Nc2ccc3c(c2)/C(=C(\c2ccc(F)cc2)c2nc4ccccc4[nH]2)C(=O)N3)CC1	500 to 5000
CCCc1ccc(/C(=C2/C(=O)Nc3ccc(NC4CCN(CC)CC4)cc32)c2ncc[nH]2)cc1	50 to 500
CCN1CCC(Nc2ccc3c(c2)/C(=C(\c2cccc(N)c2)c2nc4ccccc4[nH]2)C(=O)N3)CC1	500 to 5000
CCN1CCC(Nc2ccc3c(c2)/C(=C(\c2ccc([N+](=O)[O-])cc2)c2nc4ccccc4[nH]2)C(=O)N3)CC1	500 to 5000
COCCN1CCC(Nc2ccc3c(c2)/C(=C(\c2cccc(F)c2)c2nc4ccccc4[nH]2)C(=O)N3)CC1	50 to 500
COCCN1CCC(Nc2ccc3c(c2)/C(=C(\c2cccc(F)c2)c2nc(C)c[nH]2)C(=O)N3)CC1	50 to 500
COCCN1CCC(Nc2ccc3c(c2)/C(=C(\c2ccc(F)cc2)c2nc4ccccc4[nH]2)C(=O)N3)CC1	500 to 5000
CCOC(=O)c1[nH]c(/C(=C2\C(=O)Nc3ccc(NC4CCN(CCOC)CC4)cc32)c2cccc(F)c2)nc1C	> 5000
COCCN1CCC(Nc2ccc3c(c2)/C(=C(\c2ccccc2)c2nc4ccccc4[nH]2)C(=O)N3)CC1	50 to 500
CCN1CCC(Nc2ccc3c(c2)/C(=C(\c2ccc(F)c(F)c2)c2nc(C)c[nH]2)C(=O)N3)CC1	< 50
